What was measured:
homovanillic acid = assay: Determination of Homovanillic Acid (HVA) in rat brain; type: in vivo, rats; settings: po, 2 h, read-out: Increase in HVA; for response vs control in vivo at 50 mg/kg: dose 50 mg/kg p.o.
rats [1] = assay: "Pole Climbing" Test (conditioned / unconditioned reaction); type: in vivo; settings: for ED50: Rattus norvegicus, po, read-out: ED50 (blocking of the conditioned reaction); for ED50 / Quotient ED10 (blocking of the unconditioned reaction)/ED50 (blocking of the conditioned reaction): rats, p.o.; for Quotient ED10 (blocking of the unconditioned reaction)/ED50 (blocking of the conditioned reaction): larger quotient = greater selectivity of neuroleptic activity
Description: II. "Pole Climbing" Test This test provides information about behavior reactions of rats. Rats are trained to avoid, by climbing up a vertical pole in the test chamber, an electrical impulse-- unconditioned impulse-- released via the […] floor some seconds after an acoustic signal-- conditioned impulse. The blocking of the conditioned reaction is designated by the parameter ED50 (mg/kg. p.o.) and the blocking of the unconditioned reaction is designated by the parameter ED10 (mg/kg. p.o.). The parameter ED50 --blocking of the conditioned reaction-- provides a measure of the strength of the neuroleptic activity of the derivative under investigation.

in vivo = settings: mouse, po
Catalepsy Test = type: in vivo, rats; settings: rat, in vivo, ip; rats, intraperitoneally; observed every 30 minutes for 6 hours; read-out: ED50 (dose at which 50% of the animals show catalepsy)
Description: (§1) A cataleptic activity-- "wax rigidity", i.e., abnormally long retention of a fixed body position--in central depressant or neuroleptically active compounds is considered to be an undesirable side-effect and is produced by motor disorders. Representative dibenz[b,f]oxepin derivatives provided by this invention were administered intraperitoneally to rats. The animals are considered to be cataleptic when the homolateral extremities remain in a crossed position for at least 10 seconds. The number of cataleptic animals is noted every 30 minutes for 6 hours. The ED50 is the dose at which 50% of the animals show catalepsy.

rats [2] = assay: Catalepsy Test; type: in vivo; settings: in words, relative to chlorpromazine
Description: as §1

[3] = rats killed two hours after dosing, untreated rats fixed at 100%
[4] = in words, relative to chlorpromazine

SMILES | ED50 (rats [1]) [mg/kg] | Quotient ED10 (blocking of the unconditioned reaction)/ED50 (blocking of the conditioned reaction) (rats [1]) | LD50 at 24 h (in vivo) [mg/kg] | response vs control in vivo at 50 mg/kg (homovanillic acid; [3]) [%] | ED50 at 6 h (Catalepsy Test) [mg/kg] | cataleptic side-effect compared with chlorpromazine (rats [2]) | other results
O=C1OCCN1CCN1CCN(C2Cc3cc(Cl)ccc3Oc3ccc(F)cc32)CC1 (stereo not drawn) [E] | 3.5 | 2.8 | 900 |  |  |  | response vs control in vivo at 10 mg/kg (homovanillic acid; dose 10 mg/kg p.o., rats killed two hours after dosing, untreated rats fixed at 100%): 260%
OCCCN1CCN(C2Cc3cc(Cl)ccc3Oc3ccccc32)CC1 (stereo not drawn) [B] |  |  | 375 |  |  |  | response vs control in vivo at 3.5 mg/kg (homovanillic acid; dose 3.5 mg/kg p.o., rats killed two hours after dosing, untreated rats fixed at 100%): 260%
N#CCCN1CCN(C2Cc3cc(Cl)ccc3Oc3ccccc32)CC1 (stereo not drawn) [H] | 14 | > 21 | 1500 | 275 | > 30 | less than one fifth of the undesired cataleptic side-effect of chlorpromazine | neuroleptic strength of action compared with chlorpromazine (rats [1]; [4]): somewhat lower than that of chlorpromazine; quality (selectivity) of the neuroleptic activity compared with chlorpromazine (rats [1]; [4]): this superiority is particularly evident
O=C1OCCN1CCN1CCN(C2Cc3cc(Cl)ccc3Oc3ccc(Cl)cc32)CC1 (stereo not drawn) [C] |  |  | 900 |  |  |  | response vs control in vivo at 5 mg/kg (homovanillic acid; dose 5 mg/kg p.o., rats killed two hours after dosing, untreated rats fixed at 100%): 365%
O=C1OCCN1CCN1CCN(C2Cc3cc(Cl)ccc3Oc3ccccc32)CC1 (stereo not drawn) [G] | 15.5 | 3.5 | 450 | 225 | 50 | about one half to about one eighth of the undesired cataleptic side-effect of chlorpromazine | neuroleptic strength of action compared with chlorpromazine (rats [1]; [4]): somewhat lower than that of chlorpromazine
Cc1ccc2c(c1)CC(N1CCN(CCN3CCOC3=O)CC1)c1cc(C)ccc1O2 (stereo not drawn) [D] | 7.6 | 5.6 | 750 |  | 14 | about one half to about one eighth of the undesired cataleptic side-effect of chlorpromazine | response vs control in vivo at 15 mg/kg (homovanillic acid; dose 15 mg/kg p.o., rats killed two hours after dosing, untreated rats fixed at 100%): 335%
Cc1ccc2c(c1)CC(N1CCN(C)CC1)c1cc(C)ccc1O2 (stereo not drawn) [A] | 3.2 | 3.1 | 900 |  |  |  | response vs control in vivo at 2 mg/kg (homovanillic acid; dose 2 mg/kg p.o., rats killed two hours after dosing, untreated rats fixed at 100%): 235%
CN(C)CCCN1c2ccccc2Sc2ccc(Cl)cc21 [Chlorpromazine, reference compound] |  | 2.5 |  |  | 6 |  | response vs control in vivo at 20 mg/kg (homovanillic acid): 320%
Cc1ccc2c(c1)CC(N1CCN(CCN3CCOC3=O)CC1)c1cc(F)ccc1O2 (stereo not drawn) [F] | 7 | 5.1 | 450 | 265 | 30 | about one half to about one eighth of the undesired cataleptic side-effect of chlorpromazine | 

From patent US4032525A, “Dibenz[b,f]oxepin derivatives” (Hoffmann-La Roche Inc., priority 1974, dated 1977)
